Measured values published in ChEMBL document CHEMBL1153502, “Investigation of the pharmacophore space of Severe Acute Respiratory Syndrome coronavirus (SARS-CoV) NTPase/helicase by dihydroxychromone derivatives” (Bioorg Med Chem Lett, 2009).

Assays:
[1] = target: T1, Replicase polyprotein 1ab (Severe acute respiratory syndrome-related coronavirus, UniProt P0C6X7); assay: Inhibition of ATPase activity of SARS coronavirus helicase assessed as phosphate release by malachite green assay
[2] = target: T1, Replicase polyprotein 1ab; assay: Inhibition of SARS coronavirus helicase assessed as duplex-DNA unwinding by FRET based assay

| SMILES | IC50 [1] [µM] | IC50 [2] [µM] |
| --- | --- | --- |
| N#Cc1cccc(CNCc2cc(=O)c3c(O)c(O)ccc3o2)c1 | > 50 | > 50 |
| N#Cc1cccc(COc2cc(O)c3c(=O)c(O)c(-c4ccc(O)c(O)c4)oc3c2)c1 | 25.4 | 2.7 |
| O=c1c(O)c(-c2ccc(O)c(O)c2)oc2cc(OCc3cccc(Cl)c3)cc(O)c12 | > 50 | 5.2 |
| N#Cc1cccc(COc2cc(O)c3c(=O)c(O)c(-c4ccc5c(c4)OCO5)oc3c2)c1 | 42.9 | 8.1 |
| O=c1c(O)c(-c2ccc3c(c2)OCO3)oc2cc(OCc3ccc(Cl)cc3)cc(O)c12 | > 50 | 9.3 |
| O=c1cc(CNCc2cccc(Cl)c2)oc2ccc(O)c(O)c12 | > 50 | > 50 |
| O=c1c(O)c(-c2ccc3c(c2)OCO3)oc2cc(O)cc(O)c12 | > 50 | > 50 |
| O=c1c(O)c(-c2ccc3c(c2)OCO3)oc2cc(OCc3cccc(Cl)c3)cc(O)c12 | > 50 | 15.4 |
| O=c1cc(CNCc2ccc(Cl)cc2)oc2ccc(O)c(O)c12 | > 50 | > 50 |
| O=c1c(O)c(-c2ccc(O)c(O)c2)oc2cc(OCc3ccc(Cl)cc3)cc(O)c12 | 20.9 | 4.1 |
